Source: PubChem BioAssay (NCI)
Values joined by “and” are separate entries in the source; they are usually repeats but may differ in a detail not shown here. Equal entries are not always repeated.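 In this assay, cells in 96-well plates receive the compound at five concentrations for 48 hours. Endpoints are linearly interpolated between the surrounding concentrations. At the GI50, growth is halved. TGI: total growth inhibition.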

How the values were obtained:
Assay in all cases: NCI tumour cell line growth inhibition, 48 h
HCC-2998 colon = tested on: HCC-2998 colon
HCT-116 colon = tested on: HCT-116 colon
HCT-15 colon = tested on: HCT-15 colon
HL-60(TB) leukemia = tested on: HL-60(TB) leukemia
MALME-3M melanoma = tested on: MALME-3M melanoma
OVCAR-3 ovarian = tested on: OVCAR-3 ovarian
OVCAR-5 ovarian = tested on: OVCAR-5 ovarian
SN12C renal = tested on: SN12C renal
SNB-19 CNS = tested on: SNB-19 CNS
SNB-75 CNS = tested on: SNB-75 CNS

Compound | TGI (HCC-2998 colon) | TGI (HCT-116 colon) [µM] | TGI (HCT-15 colon) | TGI (HL-60(TB) leukemia) | TGI (MALME-3M melanoma) [µM] | TGI (OVCAR-3 ovarian) | TGI (OVCAR-5 ovarian) | TGI (SN12C renal) [µM] | TGI (SNB-19 CNS) | TGI (SNB-75 CNS) [µM] | GI50 (HCC-2998 colon) [µM] | GI50 (HCT-116 colon) | GI50 (HCT-15 colon) | GI50 (HL-60(TB) leukemia) | GI50 (MALME-3M melanoma) [µM] | GI50 (OVCAR-3 ovarian) | GI50 (OVCAR-5 ovarian) [µM] | GI50 (SN12C renal) | GI50 (SNB-19 CNS) | GI50 (SNB-75 CNS)
Cc1ccc(NC(=O)CC/C(CC(=O)C(C)(C)C)=N/NC(=O)C(N)=O)cc1C | > 100 µM | > 100 | > 100 µM | > 100 µM | > 100 | > 100 µM | > 100 µM | > 100 | > 100 µM | > 100 | – | – | – | – | – | – | – | – | – | –
Cn1cc(C2=C(c3c4n(c5ccccc35)CCCC4)C(=O)NC2=O)c2ccccc21 | > 25 µM | > 25 | > 25 µM | > 25 µM | > 25 | > 21.6 µM | > 25 µM | > 25 | > 25 µM | 19.3 | > 23.8 | 11.4 µM | 11 µM | 9.59 µM | > 17.8 | 6.43 µM | > 25 | 15.1 µM | 20.6 µM | 3.82 µM
NC(N)=NS(=O)(=O)c1ccc(Nc2c3ccccc3nc3c(C(=O)N4CCN(CCO)CC4)cccc23)cc1 | > 100 µM | > 100 | > 100 µM | > 100 µM | > 100 | > 100 µM | > 100 µM | > 100 | > 100 µM | > 100 | – | – | – | – | – | – | – | – | – | –
CC(C)N(C(=O)C12C3C4C5C3C1(C(=O)N(C(C)C)C(C)C)C5(C#N)C42)C(C)C (stereo not given) | > 100 µM | > 100 | > 100 µM | 39.4 µM | > 100 | > 100 µM | > 100 µM | > 100 | > 100 µM | > 100 | – | – | – | – | – | – | – | – | – | –
CCCCN(CCCC)c1ccc(C(=N)c2ccc(N(C)C)cc2)cc1 | 1.62 µM | 1.22 | 2.2 µM | 1.16 µM | 2.23 | 1.6 µM | 2.86 µM | 2.77 | 2.37 µM | 2.42 | 0.429 | 0.307 µM | 0.665 µM | 0.336 µM | 0.651 | 0.448 µM | 1.31 | 1.19 µM | 0.951 µM | 1.14 µM
CC1(C)CCC[C@@]2(C)C1C[C@H](O)[C@@]1(C)O[C@@](C)([C@H](O)CO)CCC21 (stereo not given in full) | > 100 µM | > 100 | > 100 µM | 48.1 µM | > 100 | > 100 µM | > 100 µM | > 100 | > 100 µM | 58.9 | – | – | – | – | – | – | – | – | – | –
NC(=O)c1cc(-c2ccncc2)cc(-c2ccccc2)c1N | > 25 µM | > 25 | > 25 µM | > 25 µM | > 25 | > 25 µM | > 25 µM | > 25 | > 25 µM | 19.6 | > 25 | > 24 µM | 19 µM | > 25 µM | > 25 | 20.5 µM | > 25 | 12.9 µM | > 25 µM | 4.76 µM
CC12CCC([C@H](N3CCOCC3)/C1=N\OCCN1CCCC1)C2(C)C (stereo not given in full) | > 100 µM | > 100 | > 100 µM | > 100 µM | > 100 | > 100 µM | > 100 µM | > 100 | > 100 µM | > 100 | – | – | – | – | – | – | – | – | – | –
COc1ccc(C2=Nc3ccccc3SC(C)C2)cc1 (stereo not given) | > 100 µM | 33 | > 100 µM | > 100 µM | > 100 | > 100 µM | > 100 µM | > 100 | > 100 µM | > 100 | – | – | – | – | – | – | – | – | – | –
COc1cc2ccccc2c2cc([N+](=O)[O-])oc12 | 1.09 µM | 10.3 | 23.7 µM | > 31.2 µM | 0.418 | 5.41 µM | 9.93 µM | > 48.7 | > 55.4 µM | 6.9 | 0.294 | – | – | – | – | – | – | – | – | –
COC(=O)CCC(C)[C@H]1CCC2C3C(C[C@H](OC(C)=O)[C@@]21C)[C@@]1(C)CCC2(C[C@H]1C[C@H]3OC(C)=O)OOC1(CCC(C)CC1)OO2 (stereo not given in full) | > 100 µM | > 100 | > 100 µM | 27.7 µM and > 100 µM | > 100 | > 100 µM and 72 µM | > 100 µM | > 100 | > 100 µM | > 100 | – | – | 8.89 µM and 30.9 µM | 3.36 µM and 14.9 µM | – | – | – | – | – | 13.7 µM and 40.7 µM
Cc1onc(-c2c(F)cccc2Cl)c1-c1ncc(-c2ccc(Cl)cc2)o1 | > 100 µM | > 100 | > 100 µM | > 100 µM | > 100 | > 100 µM | > 100 µM | > 100 | > 100 µM | 77.6 | 5.95 | 2.76 µM | 2.89 µM | 4.02 µM | 6.43 | 8.84 µM | 74.4 | 5.34 µM | 6.59 µM | 12.1 µM
CCC1=C(C)/C(=C/c2[nH]c(C(Br)Br)c(CC)c2C)N=C1C(Br)Br | 52.9 µM | > 100 | > 100 µM | 52.2 µM | 76.4 | > 100 µM | > 100 µM | > 100 | > 100 µM | 90.8 | – | – | – | – | – | – | – | – | – | –
Cc1cc(=O)oc2c(CN3CCCCC3)c(O)ccc12 | > 100 µM | > 100 | > 100 µM | > 100 µM | > 100 | > 100 µM | > 100 µM | > 100 | > 100 µM | > 100 | – | – | – | – | – | – | – | – | – | –
O=c1oc2cc(N=Cc3ccccc3Cl)ccc2c2ccccc12 | > 100 µM | > 100 | > 100 µM | > 100 µM | > 100 | > 100 µM | > 100 µM | > 100 | > 100 µM | > 100 | – | – | – | – | – | – | – | – | – | –
COc1ccc(C[n+]2c3ccccc3n3c4ccc(N)cc4ccc32)c(OC)c1OC | 24.7 µM | 83.7 | > 100 µM | 11.7 µM | 7.48 | 8.97 µM | 78.5 µM | 11 | 15.8 µM | 10.8 | 4 | 12.6 µM | 82.1 µM | 3.09 µM | 2.08 | 1.69 µM | 12.1 | 0.626 µM | 1.42 µM | 1.45 µM
N#CC(C#N)=Cc1c(-c2ccccc2)[nH]c2ccccc12 | 35.9 µM | > 100 | > 47.3 µM | > 20.2 µM | > 100 | 5.29 µM | > 100 µM | > 73.3 | > 100 µM | 14.3 | 10.4 | 2.21 µM | 0.906 µM | 1.62 µM | 15.8 | 1.66 µM | 19.6 | 5.82 µM | 5.71 µM | 2 µM
NC(C/[N+]([O-])=N/O)C(=O)O (stereo not given) | > 100 µM and 302 µM | – | > 100 µM and 329 µM | > 100 µM and 176 µM | > 487 | > 100 µM and 342 µM | > 100 µM and 230 µM | > 464 | > 100 µM and 268 µM | > 500 | – | 1.01 µM and 2.07 µM and 0.954 µM | 3.65 µM and 6.69 µM and 1.8 µM | – | 62.1 | 20.1 µM and 44.5 µM and 13 µM | – | 14.6 µM and > 100 µM and 10.5 µM | 0.595 µM and 5.93 µM and 1.36 µM | 13.4 µM and 10.2 µM and 101 µM
CC(=O)OCCOCNC(=S)N/N=C/c1ccc2ccccc2n1 | > 100 µM | > 100 | > 100 µM | > 100 µM | > 100 | > 100 µM | 65.5 µM | > 100 | > 100 µM | > 100 | – | – | – | – | – | – | – | – | – | –
Cc1c(C(=O)CC(=O)C(=O)Nc2c(C(C)C)cccc2C(C)C)[n+](=O)c2ccccc2n1[O-] | 16.6 µM | 9.1 | 8.43 µM | 6.91 µM | 18.8 | 5.29 µM | 35.6 µM | 12.2 | 37.9 µM | 31.4 | – | – | – | – | – | – | – | – | – | –
[C-]#[O+].[Cl][Sn]([Cl])[Cl].[Cl][Sn]([Cl])[Cl].[Pt].c1ccc([PH+](c2ccccc2)c2ccccc2)cc1.c1ccc([PH+](c2ccccc2)c2ccccc2)cc1 | > 100 µM | > 100 | > 100 µM | 69.1 µM | > 100 | > 100 µM | > 100 µM | > 100 | > 100 µM | > 100 | 60.7 | 43.2 µM | 49.9 µM | 25.4 µM | 60 | 62.1 µM | 88 | 56.6 µM | 34.5 µM | > 100 µM
O=C1c2cccc3cc([N+](=O)[O-])cc(c23)C(=O)N1NC1=NCCN1 | > 100 µM | > 100 | > 100 µM | > 100 µM | > 100 | > 100 µM | > 100 µM | > 100 | > 100 µM | > 100 | – | – | – | – | – | – | – | – | – | –
Oc1c(C(Nc2cccc3ccccc23)c2ccccc2)ccc2cccnc12 (stereo not given) | > 100 µM | 17.9 | 62.1 µM | 8.4 µM | 25.7 | 19.1 µM | > 100 µM | > 100 | > 100 µM | > 100 | 4.56 | 2.86 µM | 3.78 µM | 1.93 µM | 5.17 | 3.79 µM | 7.32 | 4.1 µM | 5.64 µM | 5.67 µM
CN(Cc1cnc(N)nc1N)c1ccc(C(=O)O)cc1 | > 100 µM | > 100 | > 100 µM | > 100 µM | > 100 | > 100 µM | > 100 µM | > 100 | > 100 µM | > 100 | > 100 | > 100 µM | > 100 µM | > 100 µM | > 100 | > 100 µM | > 100 | > 100 µM | > 100 µM | > 100 µM
O=C(c1ccccc1)C(c1ccccc1)C1(O)C(=O)Nc2ccccc21 (stereo not given) | > 100 µM | > 100 | > 100 µM | > 100 µM | > 100 | > 100 µM | > 100 µM | > 100 | > 100 µM | > 100 | – | – | – | – | – | – | – | – | – | –
COc1cc(/C=N/Nc2ncnc3c2cnn3C(C)C)ccc1O | > 25 µM | > 25 | > 25 µM | 11.9 µM | > 25 | > 25 µM | > 25 µM | > 25 | > 25 µM | 9.57 | 17.3 | 8.02 µM | 11 µM | 4.07 µM | 15 | 8.47 µM | 8.83 | 8.27 µM | 17 µM | 0.506 µM
Clc1ccccc1C(n1ncc2ccccc21)n1ncc2ccccc21 | > 100 µM | > 100 | > 100 µM | 50.1 µM | > 100 | > 100 µM | > 100 µM | > 100 | > 100 µM | 65.6 | – | – | – | – | – | – | – | – | – | –
